Reference: patent publication US20220143061A1, “3'3'-CYCLIC DINUCLEOTIDES AND PRODRUGS THEREOF” (INSTITUTE OF ORGANIC CHEMISTRY AND BIOCHEMISTRY ASCR, V.V.I., priority 2019, published 2022)
Like-named read-outs stand apart in the source and are kept apart here.

Columns and labels:
[1] = target: T1, human wild type STING (WT STING) (Homo sapiens, UniProt Q86WV6, H232R); assay: 293T WT STING standard reporter assay; type: cell-based; conditions: 293T wtSTING-FL cells, no digitonin, 7 hours; ISRE firefly luciferase; read-out: 293T WT STING EC50
T1 construct: host or cells: 293T cells (ATCC CRL-3216), stably double transfected with pUNO1-hSTING-WT and pGL64.27-4×ISRE
Source text: (§1) Two complementary oligonucleotides of the sequence […] […] […] […] […] The oligonucleotides were mixed in equal molar amounts, hybridized, and cleaved by restriction endonucleases HindIII (cat. #. R0104S, NEB, Ipswich, USA) and BglII (cat. #R0144S, NEB, Ipswich, USA). Ultimately, they were ligated into plasmid pGL4.27 (cat. #E6651, Promega, Madison, USA) linearized with the same enzymes. As result the sequence with four ISRE sites was placed upstream of the minimum promoter of firefly luciferase reporter gene.
(§2) After 5 minutes incubation at room temperature (RT), 250 μL of the mixture was added dropwise to the cells in one well. Cells were incubated 36 hours at 37° C. with 5% CO2, and then detached with 0.05% Trypsin and 0.22 g/L EDTA (both cat. #L0941, Biowest, Riverside, USA).
(§3) Transfected cells were seeded onto poly-D-lysine coated six well plates at density 50,000 cells per 1 cm^2 in DMEM medium with high glucose containing 10% heat inactivated FBS, 30 μg/mL blasticidin (cat. #ant-b1-05, InvivoGen, San Diego, USA), 0.06 mg/ml Penicillin G and 0.1 mg/ml Streptomycin Sulfate (both cat. #. L0018, Biowest, Riverside, USA). The medium was replenished every 3-4 days until visible colonies of cells resistant to blasticidin were formed.
(§4) Blasticidin resistant cells stably expressing WT STING were further transfected with pGL64.27-4×ISRE plasmid following the same procedure as described above. […] Homogeneous culture of stably double transfected cells was prepared by limiting dilution of cells in 96 well plates and wells with cells were selected that originated from a single cell.
The medium was removed the next day and three-fold serial dilutions of compounds in 100 μl medium were added to the cells. The plates were incubated for 7 hours at 37° C. with 5% CO2. Next 50 μl of the medium was removed from wells, and 30 μl of ONE-Glo™ Luciferase Assay System reagent (cat. #E6120, Promega, Madison, USA) was added to each well. Luminescence was read on Synergy H1 (Biotek, Winooski, USA).

[2] = target: T1, human wild type STING (WT STING); assay: Digitonin assay using 293T wtSTING-FL reporter cells; type: cell-based; conditions: 293T wtSTING-FL cells, digitonin buffer 30 minutes, then 5 hours; ISRE firefly luciferase
Source text: as §1, §2, §3, §4
The medium was removed next day and three fold serial dilutions of compounds in Digitonin buffer containing 50 mmol·l^−1 HEPES (cat. #H3375, Sigma Aldrich, Czech Republic) pH 7.0, 100 mmol·l^−1 KCl, 3 mmol·l^−1 MgCl2, 0.1 mmol·l^−1 DTT (cat. #D0632, Sigma Aldrich, Czech Republic), 85 mmol·l^−1 Sucrose (cat. #S7903, Sigma Aldrich, Czech Republic), 0.2% BSA (cat. #A2153, Sigma Aldrich, Czech Republic), 1 mmol·l^−1 ATP (cat. #A1852, Sigma Aldrich, Czech Republic), 0.1 mmol·l^−1 GTP (cat. #G8877, Sigma Aldrich, Czech Republic), and 10 μg/mL Digitonin A (cat. #D141, Sigma Aldrich, Czech Republic) were added to the cells. The buffer was removed after 30 minutes incubation at 37° C. with 5% C02, the cells were washed once with 100 μl of cultivation medium, and 100 μl of medium was added to each well. The plates with cells were incubated for 5 hours at 37° C. with 5% CO2, 50 μl of the medium was removed and 30 μl of ONE-Glo™ Luciferase Assay System reagent (cat. #E6120, Promega, Madison, USA) was added to each well. Luminesce was read on Synergy H1 (Biotek, Winooski, USA).

[3] = target: T2, WT STING (Homo sapiens, UniProt Q86WV6, H232R); assay: Differential Scanning Fluorimetry with WT STING; type: binding; conditions: thermal shift vs apoprotein; 150 μM CDN; truncated WT STING 0.1 mg/ml
T2 construct: 8xHis (N, cleaved yes); SUMO (N, cleaved yes); made in house
Method: (§5) Purified PCR products were cleaved with restriction enzymes BamHI (cat. #R0136S, NEB, Ipswich, USA) and NotI (cat. #R0189S, NEB, Ipswich, USA) and cloned into the pSUMO vector linearized with the identical enzymes.
(§6) DNase I (cat. #D5025, Sigma Aldrich, Czech Republic) and RNase A (cat. #R6513, Sigma Aldrich, Czech Republic) were added (final concentration 50 μg/ml) together with MgCl2 (final concentration 5 mmol·l^−1) to the homogenate and bacteria were lysed using French Press G-M™ High-Pressure Cell Press Homogenizer (1500 psi, 3 cycles). […] The resin was poured into a chromatography column, washed with 50 ml buffer A (50 mmol·l^−1 TrisCl (pH 8.0), 800 mmol·l^−1 NaCl, 3 mmol·l^−1 β-mercaptoethanol; 10% glycerol; 20 mmol·l^−1 imidazole) and 8-His-SUMO tagged STING proteins were eluted with 15 ml buffer A containing 300 mmol·l^−1 imidazole. […] Proteins were concentrated with Amicon® Ultra-15 10 K device (cat. #UFC901008, Merck Millipore, Billerica, USA) and flash frozen in liquid N2.
(§7) 20 μL solutions of the reaction mixtures were pipetted in triplicates into 96 well optical reaction plates and thermal denaturation of samples were performed on real time PCR cycler (LightCycler® 480 Instrument II—Roche, Basel, Switzerland). The first derivative of the thermal denaturation curves was performed to calculate denaturing temperatures of STING-CDN complexes and STING apoproteins. The thermal shift for each CDN was calculated by subtracting the average denaturing temperature of STING apoprotein from the average denaturing temperature of STING CDN complex.

[4] = target: T3, AQ STING (G230A-R293Q) (Homo sapiens, UniProt Q86WV6, G230A/H232R/R293Q); assay: Differential Scanning Fluorimetry with AQ STING; type: binding; conditions: thermal shift vs apoprotein; 150 μM CDN; truncated AQ STING 0.1 mg/ml
T3 construct: 8xHis (N, cleaved yes); SUMO (N, cleaved yes); made in house
Method: as §5, §6, §7

[5] = system: peripheral blood mononuclear cell (PBMC); assay: Peripheral blood mononuclear cell assay (cytokine levels); type: cell-based; conditions: 1 h with compound, wash, 15 hour incubation, average of one to four donors
Method: Selected compounds were tested in an in vitro peripheral blood mononuclear cell (PBMC) assay. […] Serially diluted tested compounds were added to wells in 50 μl of cultivation medium and cell were incubated with compounds for 1 h at 37° C. with 5% CO2. Plates with cells were then spun 500 g for 5 minutes and medium was removed. Cells were washed twice with the cell culture medium by the use of centrifugation and gently resuspended in 100 μl medium without compounds. After 15 hour incubation at 37° C. with 5% CO2, the cell culture medium was collected and the levels of interferon-alpha (INF-α), interferon-gamma (INF-γ) and tumor necrosis factor-alpha (TNF-α) were determined with ProcartaPlex Assays (ThermoFisher, Waltham, USA) and MAGPIX System (Merck KGaA, Darmstadt, Germany). […] Values reported are an average of runs from one to four donors.

T2 sequence (Q86WV6 140-343 H232R): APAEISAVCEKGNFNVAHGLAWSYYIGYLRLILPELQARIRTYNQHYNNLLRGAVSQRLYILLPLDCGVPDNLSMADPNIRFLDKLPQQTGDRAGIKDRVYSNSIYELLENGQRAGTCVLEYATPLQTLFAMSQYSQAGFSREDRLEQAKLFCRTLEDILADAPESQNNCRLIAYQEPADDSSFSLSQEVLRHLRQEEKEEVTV
T1 sequence (Q86WV6 whole entry H232R): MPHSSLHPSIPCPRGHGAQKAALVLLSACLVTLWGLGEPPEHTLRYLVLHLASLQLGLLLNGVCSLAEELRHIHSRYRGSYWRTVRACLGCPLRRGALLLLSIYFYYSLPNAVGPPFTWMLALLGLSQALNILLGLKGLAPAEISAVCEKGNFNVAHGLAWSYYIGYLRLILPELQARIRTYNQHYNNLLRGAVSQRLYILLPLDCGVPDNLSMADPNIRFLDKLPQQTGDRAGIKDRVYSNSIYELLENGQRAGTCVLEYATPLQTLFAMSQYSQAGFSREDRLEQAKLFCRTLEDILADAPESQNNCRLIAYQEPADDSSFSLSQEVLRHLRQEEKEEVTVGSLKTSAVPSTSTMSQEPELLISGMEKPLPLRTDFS
T3 sequence (Q86WV6 140-343 G230A/H232R/R293Q): as the sequence (Q86WV6 140-343 H232R) above, with G91A, R154Q counted along it

SMILES	EC50 [1]	EC50 [2]	DSF ΔTm WT STING [3]	DSF ΔTm AQ STING [4]	EC50 ([5]; read-out: PBMC EC50 IFN-α)	EC50 ([5]; read-out: PBMC EC50 IFN-γ)	EC50 ([5]; read-out: PBMC EC50 TNF-α)
Nc1ncnc2c1ncn2[C@@H]1O[C@@H]2COP(=O)(S)O[C@H]3[C@@H](F)[C@H](n4cnc5c(N)ncnc54)O[C@@H]3COP(=O)(S)CO[C@H]2[C@H]1F (single isomer, unassigned) [Compound 14b]	0.2 µM	0.01 µM	8.6 °C	16.7 °C	46 µM	33 µM	23 µM
Nc1ncnc2c1ncn2[C@@H]1O[C@@H]2COP(=O)(S)O[C@H]3[C@@H](F)[C@H](n4cnc5c(N)ncnc54)O[C@@H]3COP(=O)(O)CO[C@H]2[C@H]1F (single isomer, unassigned) [Compound 11b]	1.4 µM	0.05 µM	13.6 °C	18.2 °C	123 µM	> 125 µM	118 µM
Nc1ncnc2c1ncn2[C@@H]1O[C@@H]2COP(=O)(O)O[C@H]3[C@@H](F)[C@H](n4cnc5c(N)ncnc54)O[C@@H]3COP(=O)(O)CO[C@H]2[C@H]1F [Compound 21, (2R,3R,3aR,7aR,9R,10R,10aR,15aR)-2,9-bis(6-amino-9H-purin-9-yl)-3,10-difluoro-5,13-dihydroxydecahydro-2H-difuro[3,2-d:3′,2′-k][1,3,7,10]tetraoxa[2,8]diphosphacyclotridecine 5,13-dioxide]	3.1 µM	0.01 µM	9.4 °C	16.1 °C	100 µM	26 µM	50 µM
Nc1ncnc2c1ncn2[C@@H]1O[C@@H]2COP(=O)(S)O[C@H]3[C@@H](F)[C@H](n4cnc5c(N)ncnc54)O[C@@H]3COP(=O)(O)CO[C@H]2[C@H]1F (single isomer, unassigned) [Compound 11a]	4.5 µM	0.01 µM	4.8 °C	9.3 °C	400 µM	130 µM	90 µM
Nc1ncnc2c1ncn2[C@@H]1O[C@@H]2COP(=O)(S)O[C@H]3[C@@H](F)[C@H](n4cnc5c(N)ncnc54)O[C@@H]3COP(=O)(S)CO[C@H]2[C@H]1F (single isomer, unassigned) [Compound 14c]	0.3 µM	0.007 µM	8.2 °C	17.6 °C	68 µM	44 µM	51 µM
